Test results reported in US10022366B2, “Extending and maintaining micropore viability of microneedle treated skin with lipid biosynthesis inhibitors for sustained drug delivery” (University of Maryland, Baltimore, priority 2013, dated 2018).
Where a name gives a salt, the structure may show the parent alone.

How the values were obtained:
[1] = established positive control treatment in HGP, 0.5% solution; cited from earlier work
[2] = daily/alternate day topical application; compared to 2-3 days without pore lifetime enhancement agent; cited from earlier work
[3] = using MN, humans, no pore lifetime enhancer; cited from earlier work
[4] = In vitro diffusion studies across MN treated skin (NTX flux, NTX and FLU skin concentration); type: in vitro ADME, Yucatan miniature pig; details: p>0.05
Source text: NTX and FLU were quantified using high pressure liquid chromatography (HPLC). The HPLC system consisted of a Waters 717 plus auto-sampler, a Waters 600 quaternary pump, and a Waters 2487 dual wavelength absorbance detector with Waters Empower™ software. A Perkin Elmer Brownlee™ Spheri 5 VL C18 column (5μ, 220×4.6 mm) and a C18 guard column (15×3.2 mm) were used with the UV detector set at a wavelength of 280 nm for NTX and 305 nm for FLU. The mobile phase consisted of 65:35 (v/v) ACN: (0.1% TFA with 0.065% 1-octane sulfonic acid sodium salt, adjusted to pH 3.0 with TEA aqueous phase). Samples were run at a flow rate of 1.5 ml/min. The injection volume used was […] for all samples.
In vitro studies were performed to look at the flux across MN treated skin and the skin concentrations of NTX and FLU in the skin. Full-thickness Yucatan miniature pig skin was used for all in vitro experiments. All pig tissue harvesting experiments were done under IACUC approved protocols at the University of Kentucky. Fresh skin was cleaned to remove excess subcutaneous fat, dermatomed and stored at −20° C. Skin was thawed and cut into small square pieces on the day of the diffusion experiment. The thickness was measured for each individual piece of skin and the average thickness of all treatment groups was maintained between 1.4-1.8 mm. Skin was next treated with a 5 MN in-plane array, 10 times in one direction and 10 times in a mutually perpendicular direction to generate a total of 100 MN insertions within the active treatment area of 0.95 cm^2. Five treatment groups were used based on the 4 different vehicles used for FLU and a control for NTX only; all studies were done in triplicate. […] All samples were analyzed using HPLC. The steady state flux of NTX was calculated using the steady state portion of the cumulative amount permeated vs. time plot. The skin concentrations of both drugs were also determined at the end of the study by extracting the drug overnight into 10 mL of ACN, and injecting the extracted sample onto the HPLC column after appropriate dilutions. […]

[5] = Pharmacokinetic studies of NTX after MN treatment with or without FLU; details: for AUC / Cmax / Tmax: hairless, guinea pig, plasma
[6] = Irritation in the MN-treated animal models (data not shown); type: in vivo; details: FLU deposition vehicle on MN-treated animal models
Description: (§1) In order to optimize FLU skin concentration and NTX flux, in certain embodiments, four different methods were chosen for FLU deposition. […] Ethanol (200 proof) was chosen for in vivo studies because it is a frequently used topical excipient and most of the 40 μl ethanol used was allowed to evaporate before application of the drug gel. […] The other two formulations tested contained either 70% or 25% PG. […] See Ghosh P. et al., 2013. Development of a codrug approach for sustained delivery across MN treated skin. […] See Milewski M., Stinchcomb A 2011. Vehicle Composition Influence on the MN-Enhanced Transdermal Flux of Naltrexone Hydrochloride. Pharmaceutical Research 28: 124-134. The formulations also contained large amounts of ethanol, a known permeation enhancer, and evaporation of the ethanol from these was not as efficient due to the presence of PG. Solubility of FLU was not an issue with any of the formulations. Therefore, in a preferred embodiment, 40 μl of 1.5% FLU in 200 proof ethanol was chosen as the vehicle for FLU deposition. Ethanol is a well-known chemical enhancer used in the topical/transdermal industry. It acts by replacing the water molecules in the lipid polar head groups as well as the protein regions of the SC, thus enhancing free volume and permeability of molecules across the skin. See Feingold K R 2009. The outer frontier: the importance of lipid metabolism in the skin. […]

[7] = cited from earlier work
[8] = Reversibility/recovery of pores by transepidermal water loss (TEWL); type: in vivo, hairless guinea pigs (HGP); details: after removal of occlusion at 7 days; compared among the 5 treatment sites; p>0.05
Source text: The reversibility/recovery of the pores following removal of occlusion was studied using transepidermal water loss (TEWL) in a HGP model. Five different sites were chosen on the dorsal region of an animal. […] All sites were marked and cleaned on the day of the treatment. […] The concentration and amount of NTX gel and FLU were consistent with the PK studies. A placebo gel was used for site 3 and site 4. The placebo gel was similar in composition to the NTX gel with 10% PG, 1% benzyl alcohol and 3% HEC as the gelling agent. […] All sites were occluded using a transdermal patch (148) secured in place with Bioclusive™ tape. […] All experiments were conducted at least in triplicate. Recovery of the skin, (i.e., regeneration of the barrier function of the SC) was studied using TEWL. These studies were carried out to look at the effect of the local concentration of FLU on the recovery/healing of the skin following removal of occlusion.

[9] = humans; cited from earlier work
[10] = Solubility of FLU in the deposition formulations; type: physicochemical; details: in the four deposition formulations (ethanol, acetone, PG-ethanol, PG-ethanol-water)
Description: as §1

[11] = Skin irritation by colorimetry (change in erythema, Δa*); type: in vivo, hairless guinea pigs (HGP); details: immediately following treatment or following removal of the patches at 7 days; among treatment groups; p>0.05
Description: Local skin irritation can be one of the major drawbacks of topical/transdermal delivery, so irritation studies were conducted to look at the effect of local FLU treatment of the skin in HGP. The studies were conducted using the same treatment groups as the recovery studies. Colorimeter (Chroma Meter CR-400, Konica, Minolta, Japan) readings were obtained, in triplicate, at each site before and immediately after the treatment. The data were used to record changes in the color of the skin from baseline based on 3 different color axes, the red-green axis (a*), the black-white axis (L*) and the yellow-blue axis (b*). […] The degree of redness of the skin or the change in erythema of the skin was measured by the change in the red green axis (Δa*) values. Skin irritation studies were conducted in triplicate.

CCCCCCCCCCCCOS(=O)(=O)[O-].[Na+] [sodium lauryl sulfate]
Δa* value [1]: 12.3

O=C(O)Cc1ccccc1Nc1c(Cl)cccc1Cl [diclofenac, diclofenac sodium]
period of drug delivery following MN treatment [2]: 7 days

O=C1CC[C@@]2(O)[C@H]3Cc4ccc(O)c5c4[C@@]2(CCN3CC2CC2)[C@H]1O5 [NTX, Naltrexone HCL]
duration of delivery at therapeutic levels [3]: 2 to 3 days | flux across MN treated skin ([4]; NTX flux compared among the 5 treatment groups (4 FLU vehicles, NTX only control)): no significant difference | concentration of NTX in the skin ([4]; irrespective of the method of FLU deposition): no significant difference | plasma concentrations ([5]; NTX, FLU treatment group, throughout the range of the study (168 h)): above 2 ng/mL | lag time with MN enhanced delivery ([5]; NTX, any of the three groups): no lag time observed | time after treatment at which drug was quantified in plasma ([5]; NTX, patch system on MN treated skin): ≤ 15 min | plasma concentrations ([5]; NTX, vehicle control (ethanol), beyond 144 h): below 2 ng/mL | time for which detectable levels of NTX were present in the plasma ([5]; all study groups, HGP): 72 h | NTX concentration in the plasma ([5]; ethanol treated group, at 7 days): < 2 ng/mL | AUC ([5]; topical or ocular, 200 μL NTX gel, NTX in plasma, HGP, MN control: MN + NTX gel): 614 ± 213 ng·h/mL | Cmax ([5]; topical or ocular, 200 μL NTX gel, NTX in plasma, HGP, MN control: MN + 200 μL NTX gel, n=3): 39.4 ± 11.5 ng/mL | Tmax ([5]; topical or ocular, 200 μL NTX gel, Tmax, NTX in plasma, HGP, MN control: MN + NTX gel): 2.8 ± 2 h | AUC ([5]; topical or ocular, NTX in plasma, HGP, Treatment group: MN + NTX gel + FLU in ethanol): 1410 ± 1040 ng·h/mL | AUC ([5]; topical or ocular, NTX in plasma, HGP, Vehicle control: MN + NTX gel + ethanol): 1700 ± 1670 ng·h/mL | Cmax ([5]; topical or ocular, NTX in plasma, HGP, Treatment group: MN + 300 μL NTX gel + 40 μL FLU in ethanol (200 proof), n=3): 38.1 ± 19.7 ng/mL | Cmax ([5]; topical or ocular, NTX in plasma, HGP, Vehicle control: MN + 300 μL NTX gel + 40 μL ethanol (200 proof), n=4): 39.3 ± 19.2 ng/mL | Tmax ([5]; topical or ocular, Tmax, NTX in plasma, HGP, Treatment group: MN + NTX gel + FLU in ethanol): 2.7 ± 3.8 h | Tmax ([5]; topical or ocular, Tmax, NTX in plasma, HGP, Vehicle control: MN + NTX gel + ethanol): 1.4 ± 1.7 h | Tmax ([5]; topical, Tmax or time to maximum plasma concentration, NTX, all studies): 0.25 to 4 h | NTX levels ([5]; vehicle control group, until 144 hours): above 2 ng/ml

CC(C)=O [Acetone, acetone]
irritation [6]: caused irritation

CC(C)n1c(/C=C/C(O)CC(O)CC(=O)O)c(-c2ccc(F)cc2)c2ccccc21 (stereo not shown) [FLU, fluvastatin sodium]
log P [7]: 4.6 | pKa [7]: 4.27 | concentration of FLU in the skin ([4]; irrespective of the method of FLU deposition, 1.5% FLU, 40 μl): no significant difference | recovery of the skin (TEWL enhancement ratio over baseline) [8]: no significant differences | enhancement of drug delivery (window) ([5]; NTX delivery across MN-treated skin with addition of FLU): 7 days | oral bioavailability [9]: 9-50% | solubility [10]: not an issue | change in erythema (Δa*) [11]: no significant differences
